In patent publication US8536187B2 (Gilead Sciences, Inc., priority 2008, dated 2013) one finds CC50 and EC50 data, which are given here for 24 compounds.

Series [1] is described as follows: CC50 assay (CellTiter-Glo) in Huh-7 HCV replicon cells. It counts as cell-based. Particulars: human. An outline of the steps:
(§1)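 Huh-7 cells carrying HCV replicon (6000/well) incubated with serially diluted compound, 0.5% DMSO final, 3 days at 37° C, 5% CO2. EC50 from luciferase luminescence after 30 min lysis/substrate at room temperature; CC50 from CellTiter-Glo luminescence after 10 min at room temperature.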

For series [2], the system named is HCV replicon in human hepatoma Huh-7 cell line. In words: Anti-HCV replicon assay, EC50 (luciferase luminescence). It counts as cell-based. Particulars: Hepatitis C virus, Huh-7, 72 h. An outline of the steps:
as §1

Each structure is given as a SMILES string.

`COc1ccc(-c2ccc3nc(NCc4cccc(-n5cccn5)c4)nc(NCC(F)(F)F)c3n2)cc1S(C)(=O)=O` [Example 140, N^2-(3-(1H-pyrazol-1-yl)benzyl)-6-(4-methoxy-3-(methylsulfonyl)phenyl)-N^4-(2,2,2-trifluoroethyl)pyrido [3,2-d]pyrimidine-2,4-diamine] registered a CC50 at 3 days in series [1] (Table 2, 3 days incubation) of 1 to 10 µM. In addition, in series [2], the EC50 is less than 0.1 µM.

`Fc1cc(-c2ccc3nc(NCc4ccc(-n5cncn5)cc4)nc(NC4(C(F)(F)F)CC4)c3n2)cnc1NC1CC1` [Example 65, N^2-(4-(1H-1,2,4-triazol-1-yl)benzyl)-6-(6-(cyclopropylamino)-5-fluoropyridin-3-yl)-N^4-(1-(trifluoromethyl)cyclopropyl) pyrido[3,2-d]pyrimidine-2,4-diamine] displayed a CC50 at 3 days in series [1] (Table 2, 3 days incubation) of 1 to 10 µM. This compound returned an EC50 in series [2] of less than 0.1 µM.

In series [1] (Table 1, 3 days incubation), `CC[C@@H](Nc1nc(NCC(F)(F)F)c2nc(-c3ccc(F)cc3)ccc2n1)c1ccc(S(N)(=O)=O)cc1` [Example 12, (R)-4-{1-[6-(4-Fluoro-phenyl)-4-(2,2,2-trifluoro-ethylamino)-pyrido[3,2-d]pyrimidin-2-ylamino]-propyl}-benzenesulfonamide] gave a CC50 at 3 days of 10 to 25 µM. Also, the EC50 in series [2] lay within 0.25 to 2 µM.

Compound `FC(F)Oc1ccc(-c2ccc3nc(NCc4ccc(-n5cncn5)cc4)nc(NCC(F)(F)F)c3n2)cn1` [Example 245, N^2-(4-(1H-1,2,4-triazol-1-yl)benzyl)-6-(6-(difluoro-methoxy)pyridin-3-yl)-N^4-(2,2,2-trifluoroethyl)pyrido [3,2-d]pyrimidine-2,4-diamine] came in with a CC50 at 3 days in series [1] (Table 2, 3 days incubation) greater than 10 µM. Moreover, the EC50 in series [2] is less than 0.1 µM.

Consider `CCC(=O)NS(=O)(=O)c1ccc(CNc2nc(NCC(F)(F)F)c3nc(-c4ccc(OC)c(S(C)(=O)=O)c4)ccc3n2)cc1` [Example 142, N-(4-((6-(4-methoxy-3-(methylsulfonyl)phenyl)-4-(2,2,2-trifluoroethylamino)pyrido[3,2-d]pyrimidin-2-ylamino)methyl)phenylsulfonyl) propionamide], for which the CC50 at 3 days in series [1] (Table 2, 3 days incubation) was greater than 10 µM. The compound also showed an EC50 in series [2] of 0.25 to 2 µM.

In turn, `CC(C)(O)CNc1nc(NCC(F)(F)F)c2nc(-c3cccc(S(C)(=O)=O)c3)ccc2n1` [Example 159, 2-methyl-1-(6-(3-(methylsulfonyl)phenyl)-4-(2,2,2-trifluoroethylamino)pyrido[3,2-d]pyrimidin-2-ylamino)propan-2-ol] returned a cytotoxic concentration (CC50) at 3 days in series [1] (Table 2, 3 days incubation) greater than 10 µM. In series [2], this compound showed an EC50 of 0.1 to 0.25 µM.

Take `Fc1cc(-c2ccc3nc(NCc4cccc(-n5cncn5)c4)nc(NC4(C(F)(F)F)CC4)c3n2)cnc1NC1CC1` [Example 62, N^2-(3-(1H-1,2,4-triazol-1-yl)benzyl)-6-(6-(cyclopropylamino)-5-fluoropyridin-3-yl)-N^4-(1-(trifluoromethyl)cyclopropyl) pyrido[3,2-d]pyrimidine-2,4-diamine]: the CC50 at 3 days in series [1] (Table 2, 3 days incubation) is greater than 10 µM. This compound had an EC50 in series [2] of less than 0.1 µM.

In series [1] (Table 2, 3 days incubation), `CC(C)Oc1ccc(-c2ccc3nc(N[C@H](C)Cn4cncn4)nc(NCC(F)(F)F)c3n2)cn1` [Example 241, N^2-((R)-1-(1H-1,2,4-triazol-1-yl)propan-2-yl)-6-(6-isopropoxypyridin-3-yl)-N^4-(2,2,2-trifluoroethyl)pyrido [3,2-d]pyrimidine-2,4-diamine] had a CC50 at 3 days greater than 10 µM. In series [2], this compound showed an EC50 of less than 0.1 µM.

Compound `Cc1ccc(-c2ccc3nc(NCc4cccc(S(C)(=O)=O)c4)nc(NC4(C(F)(F)F)CC4)c3n2)cc1S(C)(=O)=O` [Example 34, N^2-(3-(methylsulfonyl)benzyl)-6-(4-methyl-3-(methylsulfonyl)phenyl)-N^4-(1-(trifluoromethyl)cyclopropyl) pyrido[3,2-d]pyrimidine-2,4-diamine] yielded a CC50 at 3 days in series [1] (Table 2, 3 days incubation) of 1 to 10 µM. In series [2], this compound showed an EC50 of less than 0.1 µM.

Take `CCc1cc(S(N)(=O)=O)ccc1CNc1nc(NC2(C(F)(F)F)CC2)c2nc(-c3ccc(F)cc3)ccc2n1` [Example 68, 3-ethyl-4-((6-(4-fluorophenyl)-4-(1-(trifluoromethyl)cyclo-propylamino)pyrido[3,2-d]pyrimidin-2-ylamino)methyl) benzenesulfonamide]: the CC50 at 3 days in series [1] (Table 2, 3 days incubation) is 1 to 10 µM. In series [2], this compound returned an EC50 of 0.25 to 2 µM.

With `CS(=O)(=O)c1cccc(CNc2nc(NC3(C(F)(F)F)CC3)c3nc(-c4ccc(N5CCNC5=O)cc4)ccc3n2)c1` [Example 111, 1-(4-(2-(3-(methylsulfonyl)benzylamino)-4-(1-(trifluoromethyl)cyclopropyl-amino)pyrido[3,2-d]pyrimidin-6-yl)phenyl)imidazolidin-2-one], the CC50 at 3 days in series [1] (Table 2, 3 days incubation) fell in the range of 1 to 10 µM. For the same compound, in series [2], the EC50 is less than 0.1 µM.

In the case of `CS(=O)(=O)Nc1cncc(CNc2nc(NC3(C(F)(F)F)CC3)c3nc(-c4ccc(F)cc4)ccc3n2)c1` [Example 134, N-(5-((6-(4-fluorophenyl)-4-(1-(trifluoromethyl)cyclopropyl-amino)pyrido[3,2-d]pyrimidin-2-ylamino)methyl)pyridin-3-yl)methanesulfonamide], the CC50 at 3 days in series [1] (Table 2, 3 days incubation) was greater than 10 µM. The same compound came in with an EC50 in series [2] of 0.25 to 2 µM.

Consider `CS(=O)(=O)c1cccc(-c2ccc3nc(NCc4ccc(-n5cncn5)nc4)nc(NCC(F)(F)F)c3n2)c1` [Example 184, N^2-((6-(1H-1,2,4-triazol-1-yl)pyridin-3-yl)methyl)-6-(3-(methylsulfonyl)phenyl)-N^4-(2,2,2-trifluoroethyl)pyrido [3,2-d]pyrimidine-2,4-diamine], for which, in series [1] (Table 2, 3 days incubation), the CC50 at 3 days lay within 1 to 10 µM. In series [2], the EC50 is less than 0.1 µM.

On to `Cc1nccn1-c1cccc(CNc2nc(NC3(C(F)(F)F)CC3)c3nc(-c4ccc(F)cc4)ccc3n2)c1` [Example 53, N^2-(3-(2-methyl-1H-imidazol-1-yl)benzyl)-6-(4-fluorophenyl)-N^4-(1-(trifluoromethyl)cyclopropyl)pyrido[3,2-d] pyrimidine-2,4-diamine], for which the CC50 at 3 days in series [1] (Table 2, 3 days incubation) fell in the range of 1 to 10 µM. The compound further came in with an EC50 in series [2] of 0.25 to 2 µM.

`C[C@@H](Nc1nc(OC2CCC2)c2nc(-c3cccc(S(C)(=O)=O)c3)ccc2n1)c1ccc(S(N)(=O)=O)cc1` [Example 200, 4-((R)-1-(4-cyclobutoxy-6-(3-(methylsulfonyl)phenyl)pyrido [3,2-d]pyrimidin-2-ylamino)ethyl)benzenesulfonamide]: the CC50 at 3 days in series [1] (Table 2, 3 days incubation) was greater than 10 µM. This compound also yielded an EC50 in series [2] of 0.1 to 0.25 µM.

On to `NS(=O)(=O)c1cc(Cl)cc(CNc2nc(NC3(C(F)(F)F)CC3)c3nc(C#CC4CC4)ccc3n2)c1` [Example 91, 3-chloro-5-((6-(2-cyclopropylethynyl)-4-(1-(trifluoromethyl)cyclopropyl-amino)pyrido[3,2-d]pyrimidin-2-ylamino)methyl)benzene-sulfonamide], for which the CC50 at 3 days in series [1] (Table 2, 3 days incubation) was greater than 10 µM. In series [2], this compound returned an EC50 of less than 0.1 µM.

`C[C@@H](Nc1nc(NC2(C(F)(F)F)CCCCC2)c2nc(-c3ccc(F)cc3)ccc2n1)c1ccc(S(N)(=O)=O)cc1` [Example 67, (R)-4-(1-(6-(4-fluorophenyl)-4-(1-(trifluoromethyl)cyclohexylamino)pyrido[3,2-d]pyrimidin-2-ylamino)ethyl)benzenesulfonamide] came in with a cytotoxic concentration (CC50) at 3 days in series [1] (Table 2, 3 days incubation) greater than 10 µM. Besides, the EC50 in series [2] fell in the range of 0.25 to 2 µM.

Take `CCS(=O)(=O)c1cccc(-c2ccc3nc(NCc4ccc(-n5cncn5)cc4)nc(NCC(F)(F)F)c3n2)c1` [Example 181, N^2-(4-(1H-1,2,4-triazol-1-yl)benzyl)-6-(3-(ethylsulfonyl)phenyl)-N^4-(2,2,2-trifluoroethyl)pyrido [3,2-d]pyrimidine-2,4-diamine]: the CC50 at 3 days in series [1] (Table 2, 3 days incubation) is greater than 10 µM. Also, the EC50 in series [2] is less than 0.1 µM.

On to `CS(=O)(=O)c1cccc(-c2ccc3nc(NCc4ccc(-n5cccn5)cc4)nc(NCC(F)(F)F)c3n2)c1` [Example 167, N^2-(4-(1H-pyrazol-1-yl)benzyl)-6-(3-(methylsulfonyl)phenyl)-N^4-(2,2,2-trifluoroethyl)pyrido [3,2-d]pyrimidine-2,4-diamine], for which the half-maximal cytotoxic concentration (CC50) at 3 days in series [1] (Table 2, 3 days incubation) is greater than 10 µM. Moreover, in series [2], the EC50 was less than 0.1 µM.

As for `CS(=O)(=O)c1cccc(-c2ccc3nc(NCCO)nc(NCC(F)(F)F)c3n2)c1` [Example 162, 2-(6-(3-(methylsulfonyl)phenyl)-4-(2,2,2-trifluoroethyl-amino)pyrido[3,2-d]pyrimidin-2-ylamino)ethanol], in series [1] (Table 2, 3 days incubation), the CC50 at 3 days is greater than 10 µM. The same compound came in with an EC50 in series [2] of 0.25 to 2 µM.

`CC1(Oc2nc(NCc3ccc(-n4cncn4)cc3)nc3ccc(-c4cccc(S(C)(=O)=O)c4)nc23)CC1` [Example 189, N-(4-(1H-1,2,4-triazol-1-yl)benzyl)-4-(1-methylcyclo-propoxy)-6-(3-(methylsulfonyl)phenyl)pyrido[3,2-d]pyrimidin-2-amine] displayed a CC50 at 3 days in series [1] (Table 2, 3 days incubation) of 1 to 10 µM. In series [2], this compound showed an EC50 of less than 0.1 µM.

Consider `C=Cc1ccc2nc(NCc3cc(Cl)cc(S(N)(=O)=O)c3)nc(OC3(C)CC3)c2n1` [Example 303, 3-chloro-5-((4-(1-methylcyclo-propoxy)-6-vinylpyrido[3,2-d]pyrimidin-2-ylamino)methyl) benzenesulfonamide], for which, in series [1] (Table 2, 3 days incubation), the CC50 at 3 days was greater than 10 µM. Further, in series [2], the EC50 fell in the range of 0.1 to 0.25 µM.

The compound `COc1ccc(-c2ccc3nc(N[C@H](C)c4ccc(-n5cncn5)cc4)nc(NCC(F)(F)F)c3n2)cc1S(C)(=O)=O` [Example 150, N^2-((R)-1-(4-(1H-1,2,4-triazol-1-yl)phenyl)ethyl)-6-(4-methoxy-3-(methylsulfonyl)phenyl)-N^4-(2,2,2-trifluoroethyl) pyrido[3,2-d]pyrimidine-2,4-diamine] registered a CC50 at 3 days in series [1] (Table 2, 3 days incubation) of 1 to 10 µM. This compound also yielded an EC50 in series [2] of less than 0.1 µM.

Compound `NS(=O)(=O)c1cc(Cl)cc(CNc2nc(NC3(C(F)(F)F)CC3)c3nc(-c4ccc(F)nc4)ccc3n2)c1` [Example 90, 3-chloro-5-((6-(6-fluoropyridin-3-yl)-4-(1-(trifluoromethyl)cyclopropyl-amino)pyrido[3,2-d]pyrimidin-2-ylamino)methyl)benzene-sulfonamide] registered a CC50 at 3 days in series [1] (Table 2, 3 days incubation) greater than 10 µM. Also, the EC50 in series [2] is less than 0.1 µM.
